# Reference: patent publication US6489118B2, “Allergenic proteins and peptides from dog dander and uses therefor” (ImmuLogic Pharmaceutical Corporation, priority 1992, dated 2002)
# B1: Can f II: minor dog dander allergen, affinity purified native protein (de Groot et al.) (protein)
# chain: EGNHEEPQGGLEELSGRWHSVALASNKSDLIKPWGHFRVFIHSMSAKDGNLHGDILIPQDGQCEKVSLTAFKTATSNKFDLEYWGHNDLYLAEVDPKSYLILYMINQYNDDTSLVAHLMVRDLSRQQDFLPAFESVCEDIGLHKDQIVVLSDDDRCQGSRD
# B2: recombinant, bacterially expressed Can f II: bacterially expressed recombinant Can f II with His6 reporter group (protein)
# chain: B1 chain
# modifications: left off: small tags and cut ends
# notes: bacterially expressed recombinant Can f II with His6 reporter group
# B3: Can f I: major dog allergen of Canis familiaris; mature protein of SEQ ID NO: 2; immunoaffinity purified in cited work (protein)
# chain: MKTLLLTIGFSLIAILQAQDTPALGKDTVAVSGKWYLKAMTADQEVPEKPDSVTPMILKAQKGGNLEAKITMLTNGQCQNITVVLHKTSEPGKYTAYEGQRVVFIQPSPVRDHYILYCEGELHGRQIRMAKLLGRDPEQSQEALEDFREFSRAKGLNQEILELAQSETCSPGGQ
# How the values were obtained:
# [1] = tested on: human T cell lines primed with recombinant Can f I; assay: Secondary human T cell proliferation assay (3H thymidine incorporation); format: cell-based; conditions: for percentage of positive responders (T cell stimulation index of at least two): tested dog allergic individuals
# Text: In one embodiment, peptides which have Can f I or Can f II T cell stimulating activity (i.e., the peptide comprises at least one T cell epitope) can be identified using an algorithm which predicts the presence of T cell epitopes in a protein sequence, such as the algorithm described by Hill et al., Journal of Immunology, 147:189-197 (1991). The algorithm of Hill et al. predicts the location of T cell epitopes in a protein by the presence of certain patterns within the sequence which are likely to bind MHC and therefore may contain T cell epitopes. Based on the Hill et al. algorithm, two 13 amino acid peptides (discussed in Example 10) have been identified and produced synthetically. Such peptides were tested for T cell activity as described above (e.g., by measuring cellular uptake of tritiated thymidine). Specifically, in Example 10, human T cell stimulating activity was tested by culturing T cells obtained from an individual sensitive to Can f I (i.e., an individual who has an IgE mediated immune response to Can f I) with a peptide derived from Can f I and proliferation of T cells in response to the peptide was determined, e.g., by measuring cellular uptake of tritiated thymidine. Stimulation indices for responses by T cells to peptides were calculated as the maximum CPM in response to a peptide divided by the control CPM. A stimulation index (S.I.) equal to or greater than two times the background level was considered “positive”. Positive results were used to calculate the mean stimulation index for each peptide for the group of patients tested (See FIG. 25). Preferred peptides of this invention comprise at least one T cell epitope and have a mean T cell stimulation index of greater than or equal to 2.0. A peptide having a mean T cell stimulation index of greater than or equal to 2.0 in a significant number of dog dander allergen sensitive patients tested is considered useful as a therapeutic agent. Preferred peptides have a mean T cell stimulation index of at least 2.5, more preferably at least 3.0, more preferably at least 3.5, more preferably at least 4.0, more preferably at least 5.0 and most preferably at least about 6. For example, peptides having a Can f I activity and having a mean T cell stimulation index of at least 5, as indicated by data shown in FIG. 25, include Construct 1 (SEQ ID NO: 105), Construct 2 (SEQ ID NO: 106), and Construct 3 (SEQ ID NO:107). T cell epitopes can also be predicted and determined as described above for peptides derived from Can f II.
# In addition, preferred peptides have a positivity index (P.I.) of at least about 60, more preferably about 100, more preferably at least about 200 and most preferably at least about 300. The positivity index for a peptide is determined by multiplying the mean T cell stimulation index by the percent of individuals, in a population of individuals sensitive to dog dander allergens (e.g., preferably a population of at least 12 individuals, more preferably a population of at least 30 individuals or more), who have a T cell stimulation index to such peptide of at least 2.0. Thus, the positivity index represents both the strength of a T cell response to a peptide (S.I.) and the frequency of a T cell response to a peptide in a population of individuals sensitive to dog dander allergens.
# In order to perform in vitro assays of human T cell proliferative response to Can f I and the five Can f I peptides described above, whole blood obtained from subjects allergic to Can f I in a skin prick test was passed through a Lymphocyte Separation Media (LSM) to remove platelets, red blood cells and granulocytes. The resulting peripheral blood mononuclear cells (PBMC) were stimulated with 50 μg/ml of recombinant Can f I produced as described in Example 2 for 6 days in RPMI 1640 medium supplemented with 5% heat inactivated human AB serum, 2 mM L-glutamine,10 mM HEPES, 50 μM 2-mercapto-ethanol and 100 U/ml penicillin and streptomycin. […]
# [2] = tested on: human IgE; assay: Western blot of protein preparations probed with patient plasma IgE; format: binding; conditions: plasma of dog allergic patient #901, 1:20 dilution; 5 μg/lane
# Protocol: Western Blot analysis of four different protein preparations as potential sources Can f I was performed. The four different prepparations used for Western blotting were: dog hair extract, dog saliva, bacterially expressed rCan f I (used for the ELISA) and rCan f I as expressed in a mammalian cell culture system. These preparations were loaded on a 15% acrylamide SDS-PAGE (lanes 1-4, respectively) at 5 μg/lane. The protein concentrations were based on the Bicinchoninic acid (BCA) assay (Pierce, Rockford, Ill.). Following electrophoresis, the proteins were transferred to nitrocellulose and stained with India Ink. The nitrocellulose sections were blocked by incubation in Tween solution with 1% milk/1% BSA for 30 minutes room temperature, then probed with patient #901 plasma or negative control patient #250 at a 1:20 dilution in tween mild solution. This first antibody incubation was carried out overnight at room temperature. Biotinylated goat anti-human IgE (KPL) was used as the second antibody at a 1:5000 dilution for a two hour incubation. Streptavidin-HRPO (1:20,000 dilution) and the ECL Western Blot Detection system (Amersham, Arlington Heights, Ill.) were used for detection by chemiluminescence. A 20 second exposure was performed and the film developed. The results from this assay show no recognition of the protein preparations by patient #250 IgE. […]
# [3] = tested on: human IgE; assay: Direct binding of human IgE to recombinant Can f I by ELISA
# Protocol: An ELISA plate (IMMULON II Dynatech, Chantilly, Va.) was coated with bacterially expressed recombinant Can f I, (rCan f I) at 0.5 μg/well in PBS-Tween and incubated overnight at 4° C. The coating antigen was removed and the wells were blocked with 0.5% gelatin in PBS, 200 μl/well for two hours at room temperature. Plasma from a skin test positive dog allergic patient, #901, was serially diluted with PBS-Tween and 100 μl was added per well and incubated overnight at 4° C. (the plasma dilutions were tested in duplicate). The second antibody (biotinylated goat anti-human IgE 1:1000, Kirkegaard & Perry Laboratories) was added at 100 μl/well for one hour at room temperature. This solution was removed and streptavidin-HRPO at 1:10,000, (Southern Biotecnology Associates, Inc. Birmingham, Ala.) was added for one hour at room temperature. TMB Membrane Peroxidase Substrate system (Kirkegaard & Perry Laboratories) was freshly mixed and added at 100 μl. The color was allowed to develop for 2-5 minutes. The reaction was stopped by the addition of 100 μl/well of 1M phosphoric acid. The plate was read on a Mircoplate EL 310 Autoreader (Biotek Instruments, Winooski, Vt.) with a 450 nm filter. The absorbance levels of duplicate wells were averaged. […] A known negative patient (#250) was also tested and shown to be negative by this assay.
# [4] = tested on: human IgE; assay: Direct binding ELISA of human IgE to native and recombinant Can f II
# Protocol: Plasma samples from 14 dog-allergic patients (skin test 4+) were assayed for IgE binding to native Can f II and rCan f II. An ELISA plate (Immulon II Dynatech, Chantilly, Va.) was coated with native and bacterially expressed recombinant Can f II at 0.5 μg/well in PBS-Tween and incubated overnight at 4° C. The coating antigen was removed and the wells were blocked with 0.5% gelatin in PBS, 200 μl/well for two hours at room temperature. Binding of human IgE to the coating antigen was detected using biotinylated goat-anti-human IgE, streptavidin linked to peroxidase and TMB substrate. Reactions were read on a plate reader at 450 nm (A450). Of 14 plasma samples tested for IgE to native Can f II, 5 contained detectable antibody binding (FIG. 22A), with plasma from patients #901 and #227 containg the highest levels. Similarly, of 23 plasma samples tested for IgE to recombinant, bacterially expressed Can f II, several contained detectable antibody binding (FIGS. 22B and C).
# [5] = tested on: IgE binding to dog dander extracts; conditions: RAST analysis; cited from earlier work
# [6] = tested on: IgE of dog allergic patients; conditions: purified allergen; cited from earlier work
molecule,measurement,setting,value
"Construct 2: recombinant fragment of Can f I, amino acids 56 through 108 (SEQ ID NO: 106), expressed in E. coli (TVVLHKTSEPGKYTAYEGQRVVFIQPSPVRDHYILYCEGELHGRQIRMAKLLG)",percentage of positive responders (T cell stimulation index of at least two),[1],73%
"Construct 1: recombinant fragment of Can f I, amino acids 1 through 65 (SEQ ID NO: 105), expressed in E. coli with His6",percentage of positive responders (T cell stimulation index of at least two),[1],64%
"A0096: 13 amino acid synthetic peptide, Can f I amino acids 42 through 54 (SEQ ID NO:109) (AKITMLTNGQCQN) [Construct A0096]",percentage of positive responders (T cell stimulation index of at least two),[1],43%
"A0095: 13 amino acid synthetic peptide, Can f I amino acids 7 through 19 (SEQ ID NO:108) (GKWYLKAMTADQE) [Construct A0095]",positivity index (mean S.I. x percent positive responders),[1]; FIG. 10,129
same,mean T cell stimulation index (S.I.),"[1]; mean of positive responses (S.I. >= 2), T cell lines from dog allergic patients primed with rCan f I, FIG. 25",3.0
same,percentage of positive responders (T cell stimulation index of at least two),[1],43%
"mammalian expressed rCan f I: recombinant Can f I expressed in a mammalian cell culture system (NIH 3T3), COOH-terminal His6",IgE binding on Western blot,[2],extremely faint
"Construct 3: recombinant fragment of Can f I, amino acids 90 through 148 (SEQ ID NO: 107), expressed in E. coli",percentage of positive responders (T cell stimulation index of at least two),[1],82%
rCan f I: bacterially expressed recombinant Can f I dog allergen with His6 reporter group,percentage of positive responders (T cell stimulation index of at least two),[1],89%
same,IgE binding level relative to background,"[3]; plasma of dog allergic patient #901 at 1/162 dilution, antigen 0.5 μg/well",two-fold above background
same,"IgE binding, negative control patient",[3]; plasma of known negative patient #250,negative
same,IgE binding on Western blot,[2],distinct binding
B1,number of plasma samples with detectable IgE antibody binding,"[4]; of 14 plasma samples from dog-allergic patients (skin test 4+), FIG. 22A",5
same,competition with the IgE directed against dog dander extract,[5],23%
same,dog allergic patients whose IgE reacts with the allergen,[6],66%
B2,number of plasma samples with detectable IgE antibody binding,"[4]; of 23 plasma samples, FIGS. 22B and C",several
B3,depletion of IgE binding to dog dander extracts,[5],50-70%
